The source of these data is patent US20230270692A1, “COMPOUNDS FOR CHRONIC DISORDERS” (Pillai Universal LLC, priority 2020, published 2023).

Where two headings read alike, the source gives them in different places.

The subject of data set [1] is xenograft nude mice models (triple-negative breast cancer, pancreatic, liver, colon cancer). Particulars: mouse, in vivo.
The test system is the same in data set [2]. Put plainly: In vivo metastasis / stage IV tumor studies in xenograft nude mice versus standard drugs.
In data set [3] the test system is panel of human normal cell lines. The data set is described as follows: MTT cytotoxicity of anticancer agents on normal cell lines, alone and with Compound I. The following applies: Homo sapiens, read-out: IC50 (average). As for the experimental part: The cytotoxicity of anticancer agents was studied using a panel of human normal cell lines alone and with the combination of Compound I of the present invention. The cytotoxicity effect was determined by MTT assay. The following cell lines were used: Human epidermal keratinocytes cells (HaCaT), Human dermal fibroblast (HDF), Human bone marrow mesenchymal stem cells (HBMSCs), Human normal hepatocytes cells (THLE2), Human cardiac cells (AC-16), Human intestinal epithelial cells (HIEC-6), Human neuronal cells (SHSY-5Y), Human vascular Endothelial cells (HuVECs), Human lung epithelial cells (Calu-3), Human lung fibroblast (MRC 5).
Next, the cells were treated with anticancer agents in combination with Compound I of the present invention.

Data set [4] has as its system PANC-1 xenograft. The data set is described as follows: PANC-1 xenograft mouse model. In kind it is in vivo. The following applies: day 5 to day 30; 25 mg/kg gemcitabine, 10 mg/kg Compound I. Here is the method: Study Design: A PANC-1 xenograft mouse model was carried out according to the experimental design described in FIG. 21A. Tumor volume was monitored over a 30-day period upon administration of PBS alone (vehicle control), 25 mg/kg gemcitabine, and 10 mg/kg Compound I.

The subject of data set [5] is Pancreatic adenocarcinoma cells (PANC). The data set is described as follows: MTT cell viability of pancreatic cancer cells. The following applies: Homo sapiens, Pancreatic cancer cell. In kind it is cell-based, Human. As for the experimental part: (§1) The synthesized compounds of Formula 1-4 were evaluated for cell proliferation, apoptosis, cell cycle arrest, the generation of reactive oxygen species and calcium were measured using MTT assay and flow cytometry, respectively. The expression of apoptosis- and proliferation-related proteins was determined by western blotting. The effect of molecules on apoptosis-related mRNA expression in cancer cells was detected by RT-PCR.
(§2) Changes in cell morphology were detected by the presence of cell membrane blebbing, chromatin condensation, and formation of apoptotic bodies (FIG. 10A).

Data set [6] deals with normal pancreatic cells. The data set is described as follows: Viability of normal pancreatic cells. In kind it is cell-based, Human. Particulars: at 6 h. As for the experimental part: as §1, §2

As a reminder, the mortality is the percentage killed. Turning to `Nc1cccc2c1CN(C1CCC(=O)NC1=O)C2=O` (stereo not shown) [Revlimid], the Toxicity entry in data set [1] is “Cardiotoxicity, Hepatotoxicity, Toxicity to vital organs and normal tissues”. For the same compound, the mortality came out at 100% in data set [2] (nude, mouse, in vivo) and 100% in data set [2] (treating stage IV cancer).
What is called IC50 is the concentration that inhibits the measured activity by half. Regarding `CCN(CC)CCCC(C)Nc1ccnc2cc(Cl)ccc12` (stereo not shown) [Chloroquine], in data set [3], the IC50 was in the range of 12.9 to 40.5 µM.
Consider `Nc1ccn([C@@H]2O[C@H](CO)[C@@H](O)C2(F)F)c(=O)n1` [Gemcitabine], for which, in data set [3], the IC50 fell in the range of 12.9 to 40.5 µM. The Toxicity entry in data set [1] was “Developed”. In addition, the tumor volume result in data set [4] is “steadily increases”. The “CSCs (target on CSCs population)” value in data set [2] (mouse, in vivo) came out at 5% Target on. Also, the mortality in data set [2] (nude, mouse, in vivo) was 50%; in data set [2] (treating stage IV cancer) it was 50%.
Take `CCc1c2c(nc3ccc(OC(=O)N4CCC(N5CCCCC5)CC4)cc13)-c1cc3c(c(=O)n1C2)COC(=O)[C@]3(O)CC` [Irinotecan]: the IC50 in data set [3] was in the range of 12.9 to 40.5 µM.
As for `CC[C@]1(O)C[C@H]2CN(CCc3c([nH]c4ccccc34)[C@@](C(=O)OC)(c3cc4c(cc3OC)N(C=O)[C@H]3[C@@](O)(C(=O)OC)[C@H](OC(C)=O)[C@]5(CC)C=CCN6CC[C@]43[C@@H]65)C2)C1` [Vincristine], the IC50 in data set [3] lay in the range of 12.9 to 40.5 µM.
Take “Avastin: current treatment standard drug, Inhibition of VEGF”: in data set [2] (mouse, in vivo), the “Metastasis (prevention)” value is on record as 10%, the Toxicity entry is listed as “Toxic to vital”, the “Tumor volume (reduction / changes)” value is listed as 20% and the mortality is 60%. In data set [2] (treating stage IV cancer), this compound yielded a mortality of 60%.
On to `COc1cccc2c1C(=O)c1c(O)c3c(c(O)c1C2=O)C[C@@](O)(C(=O)CO)C[C@@H]3O[C@H]1C[C@H](N)[C@H](O)[C@H](C)O1` [Doxorubicin], for which the IC50 in data set [3] lay within 12.9 to 40.5 µM.
On to `CCN(CCO)CCCC(C)Nc1ccnc2cc(Cl)ccc12` (stereo not shown) [Hydroxychloroquine], for which, in data set [3], the IC50 lay within 12.9 to 40.5 µM.
`O=c1[nH]cc(F)c(=O)[nH]1` [5-Fluorouracil]: the 50% inhibitory concentration (IC50) in data set [3] was 12.9 to 40.5 µM; in data set [5] (PANC cells, after 24 hours of exposure), 5.21 ± 0.19 µM. For the same compound, in data set [5] (3 h, read-out: decrease in viable cells), the cytotoxicity at 10 µM turned out to be 30.21 ± 0.21%. Moreover, the Toxicity in data set [6] was 40.32±0.98%; in data set [1] it was “Cardiotoxicity, Hepatotoxicity”. Besides, the “Antioxidant Activity (increased antioxidant parameters)” value in data set [2] (mouse, in vivo) is given as 10% of. Besides, in data set [2] (mouse, in vivo), the “Tumor volume (reduction / changes)” value is recorded as 35%. The mortality turned out to be 70% in data set [2] (nude, mouse, in vivo) and 70% in data set [2] (treating stage IV cancer).
